Laboratory results as given in patent US20200113852A1, “METHODS OF PATIENT SELECTION AND TREATING TRXR- OR PRDX-OVEREXPRESSED CANCERS” (TRIACT THERAPEUTICS, INC., priority 2017, published 2020).
Read-outs that look alike come from different tables or passages of the source.

Legend:
[1] = human, in vivo
Description: It was a single arm, multi dose, dose escalating trial in newly diagnosed GBM patients. The total number of patients was 43, with about 5 patients per cohort. Patients who tolerated radiation (XRT) and temozolomide (TMZ) were recruited. Inclusion criteria included completion of XRT and TMZ without grade 3 or 4 toxicity and labs within acceptable range within 6 weeks of completing XRT. The end points included safety, maximum tolerated dose (MTD), and signal of activity.
Using modified continual reassessment method, MTD was defined for metronomic and standard dose TMZ.

TrxR in MDA-MB-453 cells = assay: Endogenous TrxR activity in cell lysates (DTNB reduction assay); format: cell-based, human; settings: MDA-MB-453 cells without GSH depletion
TrxR2 = target: T1, TrxR2 (Homo sapiens, UniProt Q9NNW7); assay: Mass spectrometry of immunoprecipitated TrxR2 modified by Iniparib in HCT116 cells; format: cell-based
T1 construct: TrxR1 and TrxR2 were immunoprecipitated from octylglucoside cell extracts (12 mg proteins); endogenous in cells; host or cells: HCT116 (BSO-pretreated)
Protocol: After separation by SDS-PAGE under reducing conditions and PageBlue® protein staining (Thermo scientific), bands of interest were excised, reduced with DTT, alkylated with iodoacetamide and in-gel digested with trypsin (Promega), according to the method of Shevchenko et al. (24). Peptides were extracted with 50 mM ammonium bicarbonate and 50% acetonitrile in 0.2% formic acid and analyzed by Nano LC-MS/MS after partial evaporation in a speed-vac concentrator. LC-MS/MS experiments were performed on an NanoAcquity UPLC (Waters) coupled to a hybrid LTQ Orbitrap Velos mass spectrometer (Thermo Fisher Scientific) equipped with a nanoelectrospray source. Tryptic digests were loaded onto a nanoAcquity UPLC Trap column (Symmetry C18, 5 μm, 180 μm×20 mm, Waters) and washed with 0.2% FA at 20 μl/min for 5 min. Peptides were then eluted on a C18 reverse-phase nanoAcquity column (BEH130 C18, 1.7 μm, 75 μm×250 mm, Waters) with a linear gradient of 7-30% solvent B (H2O/CH3CN/HCOOH, 10:90:0.2, by vol.) for 85 min, 30-90% solvent B for 10 min, and 90% solvent B for 5 min, at a flow rate of 250 nL/min. The mass spectrometer was operated in the data-dependent mode to automatically switch between MS and MS/MS acquisition. Survey full scan MS spectra (m/z 300-1,600) were acquired in the Orbitrap with a resolution of 60,000 at m/z 400. The AGC was set to 1×10^6 with a maximum injection time of 100 ms. The most intense ions (up to 20) were then isolated for fragmentation in the LTQ linear ion trap with normalized collision energy of 28% at the default activation q of 0.25 with an AGC of 5×10^3 and a maximum injection time of 200 ms. The dynamic exclusion time window was set to 80 s. […] The exact parent mass is the 12C isotope ion mass of the most intense isotopic pattern detected on the high resolution Orbitrap MS parallel scan and included in the MS/MS selection window. […]

MDA-MB-231 cells = assay: Fluorescence microscopy, subcellular localization of iniparib-biotin targets; format: cell-based, human; settings: MDA-MB-231, as early as 30 min following compound addition
Protocol: MDA-MB-231 cells were platted on polylysine D coated thin glass bottom microscope chambers (Ibidi). […] For subcellular localization experiments mitochondria were stained with 100 nM Mitotracker Red CMX (Molecular probes) added for 10 min. This stain was performed before fixation (Paraformaldehyde 3.7% in PBS pH 7.4). Biotin was developed, after Triton X100 (0.3% in PBS, 15 min) permeabilization and saturation (1% BSA+1% gelatin in PBS: saturation buffer), with Alexa-488 streptavidin (Molecular Probes) conjugate (1 μg/ml in saturation buffer). Nuclei were stained with Hoechst (Molecular Probes) and samples mounted in antifading solution (Ibidi).
Cells were imaged with a PLAN NeoFluar 40× (NA 1.3) or 100×, (NA 1.46) oil objectives on a LSM510 (Zeiss) confocal microscope. Laser lines, filters and dichroic mirrors were selected for maximal separation of the green (Ex./Em. 488/530 nm) and the red fluorescence (Ex./Em. 543/LP 585 nm). Nuclei were observed (Ex./Em. 405/460 nm). For co-localization stacks of images separated by 400 nm along z-axis were acquired. Post-capture processing was done using LSM510 software, stacks of confocal images were deconvoluted using the ImageJ software.

TrxR1 = target: T2, TrxR1 (Homo sapiens, UniProt Q16881); assay: In vitro Iniparib-biotin TrxR adduct formation on immunoprecipitated TrxR with or without NADPH; format: binding
T2 sequence (Q16881 1-499 isoform Q16881-5): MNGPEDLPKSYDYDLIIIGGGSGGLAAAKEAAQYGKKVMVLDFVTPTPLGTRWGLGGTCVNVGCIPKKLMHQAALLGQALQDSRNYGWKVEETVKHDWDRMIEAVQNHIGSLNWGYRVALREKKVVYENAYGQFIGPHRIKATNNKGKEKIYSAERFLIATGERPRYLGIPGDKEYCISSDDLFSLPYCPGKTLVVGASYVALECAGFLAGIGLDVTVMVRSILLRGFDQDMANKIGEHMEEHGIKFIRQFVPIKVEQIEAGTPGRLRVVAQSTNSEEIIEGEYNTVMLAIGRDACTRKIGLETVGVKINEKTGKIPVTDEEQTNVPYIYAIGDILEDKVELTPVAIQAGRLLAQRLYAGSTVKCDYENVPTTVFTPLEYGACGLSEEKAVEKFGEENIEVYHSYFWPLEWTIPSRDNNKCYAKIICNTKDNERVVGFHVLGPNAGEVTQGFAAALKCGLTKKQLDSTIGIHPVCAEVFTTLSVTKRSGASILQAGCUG

T1 sequence (Q9NNW7 37-524): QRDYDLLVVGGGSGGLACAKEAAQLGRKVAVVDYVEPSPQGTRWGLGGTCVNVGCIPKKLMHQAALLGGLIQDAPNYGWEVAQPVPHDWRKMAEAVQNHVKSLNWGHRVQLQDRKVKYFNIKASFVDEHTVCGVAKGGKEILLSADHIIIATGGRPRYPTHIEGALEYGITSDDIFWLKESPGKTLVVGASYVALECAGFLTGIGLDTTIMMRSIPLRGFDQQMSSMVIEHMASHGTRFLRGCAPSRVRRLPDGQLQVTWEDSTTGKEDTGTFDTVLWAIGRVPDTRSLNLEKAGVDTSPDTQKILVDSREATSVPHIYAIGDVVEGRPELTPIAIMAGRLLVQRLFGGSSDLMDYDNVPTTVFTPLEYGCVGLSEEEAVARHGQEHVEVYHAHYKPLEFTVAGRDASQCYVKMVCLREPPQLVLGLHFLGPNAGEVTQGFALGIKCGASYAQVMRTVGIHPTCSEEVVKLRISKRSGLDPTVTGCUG

SMILES	DLT: fatigue [1]	DLT: hypersensitivity reaction [1]	DLT: rash [1]	DLT: thromboembolic event [1]	Fatigue [1]	Nausea [1]	additional grade 3 toxicities [1]	Fatigue ([1]; 3 cycles (10 weeks each))	Nausea ([1]; 3 cycles (10 weeks each))	Fatigue ([1]; 6 cycles (monthly))	Nausea ([1]; 6 cycles (monthly))	TrxR reductase activity (TrxR in MDA-MB-453 cells)	TrxR2 with one Iniparib adduct on Sec residue (TrxR2; 1 h) [%]	TrxR2 with one Iniparib adduct on Sec residue (TrxR2; 4 h) [%]	additional TrxR2 peptide modified on a cysteine residue (TrxR2; 4 h) [%]	protein modification, subcellular localization (MDA-MB-231 cells)	adduct formation with TrxR1 (TrxR1; NADPH provided)	covalent labeling of TrxR1 (TrxR1; absence of NADPH)
NC(=O)c1ccc(I)c([N+](=O)[O-])c1 [Iniparib, 4-iodo-3-nitrobenzamide]	1	1	1	1	28 (65) No. (% of pts)	18 (42) No. (% of pts)	neutropenia, lymphopenia, nausea, and elevated AST	13 (65) No. (% of pts)	9 (45) No. (% of pts)	15 (65) No. (% of pts)	9 (39) No. (% of pts)	reductase activity inhibition	5	12	< 1			
O=C(CCCC[C@@H]1SC[C@@H]2NC(=O)N[C@@H]21)NCCNC(=O)c1ccc(I)c([N+](=O)[O-])c1 [Iniparib-biotin, 4-iodo-3-nitro-N-(2-(5-((3 aS,4S,6aR)-2-oxohexahydro-1H-thieno[3,4-d]imidazol-4-yl)pentanamido)ethyl)benzamide]																covalently modified cytosolic and mitochondrial proteins were detected	able to form adducts with TrxR1 to a large extent	almost no covalent labeling
